# From patent US11484608B2, “Non-invasive assessment of hepatic mitochondrial metabolism by positional isotopomer NMR tracer analysis (PINTA)” (YALE UNIVERSITY, priority 2017, dated 2022)
# Where two headings read alike, the source gives them in different places.
# Legend:
# [1] = test system: primary mouse hepatocytes; assay: In vitro glucose production, VPC and lipolysis in isolated hepatocytes; type: cell-based; conditions: WT hepatocytes, 100 nM glucagon, 8 hr
# Method: For in vitro glucose production and lipolysis studies, primary mouse hepatocytes were isolated by the Yale Liver Center. Following removal of cell debris by Percoll density gradient centrifugation, cells were plated on 6-well collagen-I coated dishes (4.0×10^5 cells/well) in 2 ml recovery media (DMEM High Glucose containing 10% FBS, 2% penicillin-streptomycin, 100 nM dexamethasone, 1 nM insulin, and 10 mM HEPES). After incubation for 6 hr at 37° C. and 5% CO2, the attached cells were washed once in 1×PBS and then incubated overnight in 2 ml Low Glucose Culture Media (DMEM Low Glucose supplemented with 10% FBS, 2% penicillin-streptomycin and 10 mM HEPES for glucose production studies) or Serum Free Low Glucose Culture Media (DMEM Low Glucose supplemented with 0.5% fatty acid free BSA, 2% penicillin-streptomycin and 10 mM HEPES for lipolysis assays). […] After incubation for 8 hr at 37° C. and 5% CO2, cell culture media was collected for analysis of glucose, NEFA, and glycerol concentrations as described above. VPC was determined by measuring VPC/VEGP by PINTA as described above using 300 μL of the collected media, and multiplying this ratio by the measured glucose production rate. In a subset of studies, cells were incubated for 8 hr during the glucose production assay in media containing one of the following agents (all dissolved in 0.5% DMSO), or 0.5% DMSO vehicle: 20 μM ET-18-OCH3 (Santa Cruz), 100 μM U-73122 (Sigma), 30 nM thapsigargin (Sigma), 100 nM vasopressin (Sigma) 50 μM 2-APB (R&D Systems), 70 μM caffeine (Sigma), 1 mM malic enzyme inhibitor hydroxymalonate (Sigma). To inhibit PKA, hepatocytes were incubated in H-89 […] hydrate (Sigma, 25 μM) dissolved in media, or media lacking H-89 as a control. In the insulin treatment studies, hepatocytes were incubated in 1 nM insulin with 5% BSA and glucose production media for the duration of the glucose production assay. In the in vitro atglistatin study, hepatocytes were incubated in 10 μM atglistatin in 0.1% EtOH, or 0.1% EtOH vehicle. All values were normalized to total protein content determined from whole-cell lysates by a BCA protein assay (Thermo Fisher Scientific) according to the manufacturer's instructions and expressed as fold change verses vehicle-treated cells.
# ATGL = biological target: T1, ATGL (Rattus norvegicus, UniProt P0C548); assay: ATGL inhibitor atglistatin in 0, 6, 16 and 48 hr fasted rats; type: in vivo
# T1 construct: from tissue; host or cells: live rat, in vivo (intraperitoneal dosing)
# T1 sequence (P0C548 1-478): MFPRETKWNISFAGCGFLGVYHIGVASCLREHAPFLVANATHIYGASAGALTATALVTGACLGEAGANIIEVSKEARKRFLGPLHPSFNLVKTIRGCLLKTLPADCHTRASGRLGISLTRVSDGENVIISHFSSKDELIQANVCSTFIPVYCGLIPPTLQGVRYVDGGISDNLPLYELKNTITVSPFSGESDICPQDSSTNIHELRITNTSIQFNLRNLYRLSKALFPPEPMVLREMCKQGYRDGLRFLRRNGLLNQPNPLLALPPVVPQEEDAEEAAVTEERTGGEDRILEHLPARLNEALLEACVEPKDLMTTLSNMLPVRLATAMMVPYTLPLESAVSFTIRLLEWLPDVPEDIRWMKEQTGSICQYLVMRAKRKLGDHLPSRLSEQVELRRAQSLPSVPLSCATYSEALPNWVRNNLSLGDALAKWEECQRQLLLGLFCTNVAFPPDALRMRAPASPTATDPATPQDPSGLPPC
# Method: Liver and muscle glycogen concentrations were assessed using amyloglucosidase digestion. Liver TAG content was measured using the method of Bligh and Dyer (Bligh and Dyer, Can. J. Biochem. Physiol. 37, 911-917, 1959): lipids were extracted from livers using 2:1 chloroform:methanol, and the Sekisui triglyceride-SL reagent was used to measure triglyceride content spectrophotometrically. Liver and muscle DAG content and liver acetyl- and malonyl-CoA concentrations were measured by LC-MS/MS as described by Yu and Perry (Yu, et al. J. Biol. Chem. 2002, 277, 50230-50236; Perry, et al., J. Clin. Invest. 2017, 127, 657-669). […] The samples were homogenized in […] ice-cold methanol using a TissueLyser and filtered through a Nanosep filter. LC-MS/MS (AbSCIEX 6500 QTRAP with a Shimadzu ultrafast liquid chromatography system, negative ion mode) was again used to monitor the relevant ion pairs: succinate and [^13C4]succinate, 117/99 and 121/103, respectively; malate and [^13C4]malate, 133/115 and 137/119, respectively; and citrate and [13C6]citrate, 191/173 and 197/179, respectively. […] Hepatic PKCε translocation, gluconeogenic enzyme protein expression, ApoB (antibody from Meridian Life Science, Memphis, Tenn.), and PGC1α (antibody from Santa Cruz Biotechnology, Dallas, Tex.) protein expression were assessed by western blot. Expression of each of these proteins was normalized to GAPDH.
# [2] = test system: hepatic gluconeogenesis and mitochondrial oxidation (VPC, VCS); assay: Alanine replacement in 48 hr fasted rats; type: in vivo, rat
# Method: Hepatic fluxes (whole-body glucose turnover, VPC and VCS), liver TCA cycle intermediate concentrations, and plasma metabolites and hormones were measured as described below (Flux Measurements). […] Liver and muscle glycogen concentrations were assessed using amyloglucosidase digestion. Liver TAG content was measured using the method of Bligh and Dyer (Bligh and Dyer, Can. J. Biochem. Physiol. 37, 911-917, 1959): lipids were extracted from livers using 2:1 chloroform:methanol, and the Sekisui triglyceride-SL reagent was used to measure triglyceride content spectrophotometrically. Liver and muscle DAG content and liver acetyl- and malonyl-CoA concentrations were measured by LC-MS/MS as described by Yu and Perry (Yu, et al. J. Biol. Chem. 2002, 277, 50230-50236; Perry, et al., J. Clin. Invest. 2017, 127, 657-669). […] The samples were homogenized in […] ice-cold methanol using a TissueLyser and filtered through a Nanosep filter. LC-MS/MS (AbSCIEX 6500 QTRAP with a Shimadzu ultrafast liquid chromatography system, negative ion mode) was again used to monitor the relevant ion pairs: succinate and [^13C4]succinate, 117/99 and 121/103, respectively; malate and [^13C4]malate, 133/115 and 137/119, respectively; and citrate and [13C6]citrate, 191/173 and 197/179, respectively. […] Hepatic PKCε translocation, gluconeogenic enzyme protein expression, ApoB (antibody from Meridian Life Science, Memphis, Tenn.), and PGC1α (antibody from Santa Cruz Biotechnology, Dallas, Tex.) protein expression were assessed by western blot. Expression of each of these proteins was normalized to GAPDH.
# [3] = test system: HPA axis, WAT lipolysis, endogenous glucose production; assay: Leptin dose-response in streptozotocin-induced type 1 diabetic rats; type: in vivo, rat; conditions: T1D rats
# Text: Male Sprague-Dawley rats were ordered from Charles River Laboratories (Wilmington, Mass.) at ˜250 g and were group housed (3 per cage) for 1-2 weeks until they underwent surgery under general isoflurane anesthesia for placement of polyethylene catheters in the common carotid artery (PE50 tubing, Instech Solomon, Plymouth Meeting, Pa.), and the jugular vein (PE90 tubing, Instech), and/or the portal vein (PE50 tubing, Instech), after which they were singly housed until sacrifice. Unless otherwise specified, rats were fed a regular chow diet (Harlan Teklad #2018, Indianapolis, Ind.) throughout, and fasted as described below. […] In order to induce T1D, rats were injected with streptozotocin (65 mg/kg IP, Sigma Aldrich, St. Louis, Mo.) 24 hr prior to the start of a leptin infusion study and were fasted overnight 12 hr after streptozotocin injection.
# In order to examine the physiologic impact of varying doses of leptin on glucose, hormones, and lipolysis, rats were infused with stepwise increasing doses of leptin during a continuous infusion of [1,2,3,4,5,6,6-^2H7]glucose, [U-^13C16]palmitate, [1,1,2,3,3-^2H5] glycerol, and [U-^13C4] β-hydroxybutyrate starting at hour 42 of a 48 hr fast. From 42-43.5 hr of the fast rats were infused with tracer only, from hours 43.5-45 they were infused with 20 pmol/(kg-min) leptin, from hours 45-46.5 they were infused with 60 pmol/(kg-min) leptin, and from 46.5-48 hr the infusion rate was 600 pmol/(kg-min). Blood samples were taken at 43.5, 45, 46.5, and 48 hr for measurement of substrate/hormone concentrations and turnover of each tracer, as described below. In the T1D leptin dose response studies, overnight (12 hr) fasted rats were infused with stepwise increasing dose of leptin during the same tracer infusion as described above. From 12-14 hr of the fast rats were infused with tracer only, from 14-16 hr they were infused with 50 pmol/(kg-min) leptin, and from hours 16-18 they were infused with 600 pmol/(kg-min) leptin. Blood samples were taken at 14, 16, and 18 hr of the fast for measurement of substrate/hormone concentrations and turnover of each tracer, as described below.
# [4] = test system: HPA axis, WAT lipolysis, and hepatic gluconeogenesis; type: in vivo, rat
# Method: Blood samples were taken at 14, 16, and 18 hr of the fast for measurement of substrate/hormone concentrations and turnover of each tracer, as described below. […] Liver and muscle glycogen concentrations were assessed using amyloglucosidase digestion. Liver TAG content was measured using the method of Bligh and Dyer (Bligh and Dyer, Can. J. Biochem. Physiol. 37, 911-917, 1959): lipids were extracted from livers using 2:1 chloroform:methanol, and the Sekisui triglyceride-SL reagent was used to measure triglyceride content spectrophotometrically. Liver and muscle DAG content and liver acetyl- and malonyl-CoA concentrations were measured by LC-MS/MS as described by Yu and Perry (Yu, et al. J. Biol. Chem. 2002, 277, 50230-50236; Perry, et al., J. Clin. Invest. 2017, 127, 657-669). […] The samples were homogenized in […] ice-cold methanol using a TissueLyser and filtered through a Nanosep filter. LC-MS/MS (AbSCIEX 6500 QTRAP with a Shimadzu ultrafast liquid chromatography system, negative ion mode) was again used to monitor the relevant ion pairs: succinate and [^13C4]succinate, 117/99 and 121/103, respectively; malate and [^13C4]malate, 133/115 and 137/119, respectively; and citrate and [13C6]citrate, 191/173 and 197/179, respectively. […] Hepatic PKCε translocation, gluconeogenic enzyme protein expression, ApoB (antibody from Meridian Life Science, Memphis, Tenn.), and PGC1α (antibody from Santa Cruz Biotechnology, Dallas, Tex.) protein expression were assessed by western blot. Expression of each of these proteins was normalized to GAPDH.
# [5] = supraphysiologic leptin (˜1300 pM)
# [6] = supraphysiologic leptin treatment
molecule,measurement,setting,value
CN(C)C(=O)Nc1cccc(-c2ccc(N(C)C)cc2)c1 [atglistatin],glucagon-stimulated VPC flux,[1],no effect
same,glucagon-stimulated glucose production,[1],no effect
same,plasma corticosterone concentration,ATGL; 16- and 48-hr fasted rats,increases
same,plasma glucose concentrations,ATGL; 16- and 48-hr fasted rats,decreased
same,plasma leptin,ATGL; 16- and 48-hr fasted rats,reductions
same,"hepatic acetyl-CoA content, hepatic gluconeogenesis, and plasma glucose and insulin concentrations",ATGL; 16- to 48-hr fasted rats,suppressed
same,WAT lipolysis,ATGL; 48-hr fasted rats,suppression
same,hepatic acetyl-CoA content,ATGL; 48-hr fasted rats,suppression
same,"plasma lactate, epinephrine, and norepinephrine concentrations and hepatic malonyl-CoA content",ATGL; fasted rats,unchanged
C[C@H](N)C(=O)O [alanine],"plasma glucose, insulin, and lactate concentrations",[2]; alanine 45 mmol/(kg-min) 2 hr,increased
same,endogenous glucose production,[2]; alanine infusion,increased
same,increase in plasma leptin concentrations,[2]; alanine infusion,3 fold
same,liver tricarboxylic acid cycle intermediate concentrations,[2]; alanine infusion,increased
same,plasma glucagon,[2]; alanine infusion,independent of any change
same,pyruvate carboxylase flux (VPC),[2]; alanine infusion,increased
same,rates of hepatic mitochondrial oxidation (VCS),[2]; alanine infusion,increased
leptin: leptin hormone infused at stepwise increasing doses,HPA axis activity,[3]; both doses,suppressed
same,WAT lipolysis,[3]; leptin ˜60 pM,suppression
same,suppression of WAT lipolysis,[3]; leptin ˜1300 pM,abrogated
same,plasma glucose concentrations and endogenous glucose production rates,[3]; physiologic leptin replacement (˜60 pM),marked reduction
same,growth hormone concentrations,[3]; supraphysiologic leptin,without any change
same,increase in plasma catecholamine concentrations,[3]; [5],4 fold
same,plasma glucose concentrations and endogenous glucose production,[3]; [5],increases
same,plasma FGF-21 concentrations,[4]; 48-hr fasted rats,dose-dependent reduction
same,plasma growth hormone concentrations,[4]; 48-hr fasted rats,no difference
same,plasma corticosterone,[4]; all three infusion rates,suppressed
same,plasma insulin concentrations,[4]; highest dose,increased
same,increase in plasma epinephrine and norepinephrine concentrations,[4]; highest infusion rate,2- to 3 fold
same,fatty acid and glycerol turnover,[4]; physiologic leptin replacement,suppressed
same,"plasma NEFA, glycerol, β-hydroxybutyrate, and lactate concentrations",[4]; physiologic leptin replacement,suppression
same,hepatic glucose production,[4]; plasma leptin ˜60 pM,lowered
same,plasma glucose concentrations,[4]; plasma leptin ˜60 pM,lowered
same,plasma glucose concentrations and hepatic glucose production,[4]; plasma leptin ˜150 pM and ˜1250 pM,unable to lower
same,"plasma NEFA, glycerol, β-hydroxybutyrate, and lactate concentrations",[4]; supraphysiologic leptin infusions,increases
same,fatty acid and glycerol turnover,[4]; [6],increased
same,hepatic acetyl-CoA content and β-hydroxybutyrate turnover,[4]; [6],increases
